Legend:
Type in all cases: biochemical
[1] = biological target: CDK5/P25 (Homo sapiens (Human), UniProt Q00535); experiment: Kinome-wide profiling; settings: read-out: % Residual Activity (mean)
[2] = biological target: SNRK (Homo sapiens (Human), UniProt Q9NRH2); experiment: Kinome-wide profiling; settings: read-out: % Residual Activity (mean)
[3] = biological target: DYRK1B (Homo sapiens (Human), UniProt Q9Y463); experiment: Kinome-wide profiling; settings: read-out: % Residual Activity (mean)
[4] = biological target: HIPK4 (Homo sapiens (Human), UniProt Q8NE63); experiment: Kinome-wide profiling; settings: read-out: % Residual Activity (mean)
Chain of HIPK4 (Q8NE63 whole entry): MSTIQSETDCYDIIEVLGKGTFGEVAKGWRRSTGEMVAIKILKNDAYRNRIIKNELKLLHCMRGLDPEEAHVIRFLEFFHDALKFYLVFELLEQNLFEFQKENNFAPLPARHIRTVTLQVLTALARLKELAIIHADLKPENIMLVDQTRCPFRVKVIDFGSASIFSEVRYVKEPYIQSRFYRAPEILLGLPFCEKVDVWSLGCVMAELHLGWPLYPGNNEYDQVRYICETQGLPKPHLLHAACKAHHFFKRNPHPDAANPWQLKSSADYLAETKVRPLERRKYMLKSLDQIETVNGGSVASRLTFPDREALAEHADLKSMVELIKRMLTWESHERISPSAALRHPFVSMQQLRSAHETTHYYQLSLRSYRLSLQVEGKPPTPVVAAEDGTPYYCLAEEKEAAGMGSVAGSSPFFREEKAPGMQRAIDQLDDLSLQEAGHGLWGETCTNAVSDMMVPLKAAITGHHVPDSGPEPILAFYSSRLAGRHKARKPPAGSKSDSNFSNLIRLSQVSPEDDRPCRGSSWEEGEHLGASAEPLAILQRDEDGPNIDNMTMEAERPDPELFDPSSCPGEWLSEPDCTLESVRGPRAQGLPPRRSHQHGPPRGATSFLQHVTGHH

[5] = biological target: STK38/NDR1 (Homo sapiens (Human), UniProt Q15208); experiment: Kinome-wide profiling; settings: read-out: % Residual Activity (mean)
Chain of STK38/NDR1 (Q15208 whole entry): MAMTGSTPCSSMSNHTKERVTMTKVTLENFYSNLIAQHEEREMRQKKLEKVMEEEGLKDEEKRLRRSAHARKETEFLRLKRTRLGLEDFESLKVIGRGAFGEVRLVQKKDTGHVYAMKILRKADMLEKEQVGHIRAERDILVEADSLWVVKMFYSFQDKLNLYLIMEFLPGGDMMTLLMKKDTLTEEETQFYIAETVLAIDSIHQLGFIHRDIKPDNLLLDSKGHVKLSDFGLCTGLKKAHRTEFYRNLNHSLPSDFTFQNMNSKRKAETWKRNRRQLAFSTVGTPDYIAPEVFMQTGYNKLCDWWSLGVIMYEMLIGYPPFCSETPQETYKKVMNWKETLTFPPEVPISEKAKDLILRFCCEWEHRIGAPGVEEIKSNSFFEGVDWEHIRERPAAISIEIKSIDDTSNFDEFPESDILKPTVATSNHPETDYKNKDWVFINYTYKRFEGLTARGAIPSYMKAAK

[6] = biological target: Haspin (Homo sapiens (Human), UniProt Q8TF76); experiment: Kinome-wide profiling; settings: read-out: % Residual Activity (mean)
[7] = biological target: PKA (Homo sapiens (Human), UniProt P17612); experiment: Kinome-wide profiling; settings: read-out: % Residual Activity (mean)
[8] = biological target: NEK3 (Homo sapiens (Human), UniProt P51956); experiment: Kinome-wide profiling; settings: read-out: % Residual Activity (mean)
Chain of NEK3 (P51956 whole entry): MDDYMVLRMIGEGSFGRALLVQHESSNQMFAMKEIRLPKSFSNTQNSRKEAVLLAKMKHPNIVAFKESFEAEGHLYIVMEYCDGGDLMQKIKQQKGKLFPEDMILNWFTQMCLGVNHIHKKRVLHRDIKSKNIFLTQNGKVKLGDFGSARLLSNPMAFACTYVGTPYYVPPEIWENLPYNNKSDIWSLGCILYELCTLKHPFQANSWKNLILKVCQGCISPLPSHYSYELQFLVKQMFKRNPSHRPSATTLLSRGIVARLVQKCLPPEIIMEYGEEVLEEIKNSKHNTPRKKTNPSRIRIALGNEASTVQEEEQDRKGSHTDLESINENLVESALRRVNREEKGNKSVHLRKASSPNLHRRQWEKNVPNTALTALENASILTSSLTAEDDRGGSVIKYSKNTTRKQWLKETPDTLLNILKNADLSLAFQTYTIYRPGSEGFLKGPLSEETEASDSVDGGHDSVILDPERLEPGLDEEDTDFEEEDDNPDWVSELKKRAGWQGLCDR

[9] = biological target: PKG1b (Homo sapiens (Human), UniProt Q13976); experiment: Kinome-wide profiling; settings: read-out: % Residual Activity (mean)
[10] = biological target: LOK/STK10 (Homo sapiens (Human), UniProt O94804); experiment: Kinome-wide profiling; settings: read-out: % Residual Activity (mean)
[11] = biological target: MEK5 (Homo sapiens (Human), UniProt Q13163); experiment: Kinome-wide profiling; settings: read-out: % Residual Activity (mean)
[12] = biological target: ALK (Homo sapiens (Human), UniProt Q9UM73); experiment: Kinome-wide profiling; settings: read-out: % Residual Activity (mean)
[13] = biological target: DYRK1/DYRKIA (Homo sapiens (Human), UniProt Q13627); experiment: Kinome-wide profiling; settings: read-out: % Residual Activity (mean)
[14] = biological target: LYN (Homo sapiens (Human), UniProt P07948); experiment: Kinome-wide profiling; settings: read-out: % Residual Activity (mean)
Chain of LYN (P07948 whole entry): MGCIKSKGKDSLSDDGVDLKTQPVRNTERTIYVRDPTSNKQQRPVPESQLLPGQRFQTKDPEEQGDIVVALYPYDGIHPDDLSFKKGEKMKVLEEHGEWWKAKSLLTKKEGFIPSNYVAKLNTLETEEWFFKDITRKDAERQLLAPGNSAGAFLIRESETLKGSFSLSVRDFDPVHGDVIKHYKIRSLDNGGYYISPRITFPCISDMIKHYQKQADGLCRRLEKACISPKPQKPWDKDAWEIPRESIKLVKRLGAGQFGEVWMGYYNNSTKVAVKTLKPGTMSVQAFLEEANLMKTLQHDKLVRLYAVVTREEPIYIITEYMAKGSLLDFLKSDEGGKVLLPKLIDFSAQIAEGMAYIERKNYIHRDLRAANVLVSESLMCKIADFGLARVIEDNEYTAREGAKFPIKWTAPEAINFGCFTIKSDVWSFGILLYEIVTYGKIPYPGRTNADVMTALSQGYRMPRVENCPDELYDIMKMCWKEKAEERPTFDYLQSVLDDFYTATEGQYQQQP

[15] = biological target: CAMK1d (Homo sapiens (Human), UniProt Q8IU85); experiment: Kinome-wide profiling; settings: read-out: % Residual Activity (mean)
Chain of CAMK1d (Q8IU85 whole entry): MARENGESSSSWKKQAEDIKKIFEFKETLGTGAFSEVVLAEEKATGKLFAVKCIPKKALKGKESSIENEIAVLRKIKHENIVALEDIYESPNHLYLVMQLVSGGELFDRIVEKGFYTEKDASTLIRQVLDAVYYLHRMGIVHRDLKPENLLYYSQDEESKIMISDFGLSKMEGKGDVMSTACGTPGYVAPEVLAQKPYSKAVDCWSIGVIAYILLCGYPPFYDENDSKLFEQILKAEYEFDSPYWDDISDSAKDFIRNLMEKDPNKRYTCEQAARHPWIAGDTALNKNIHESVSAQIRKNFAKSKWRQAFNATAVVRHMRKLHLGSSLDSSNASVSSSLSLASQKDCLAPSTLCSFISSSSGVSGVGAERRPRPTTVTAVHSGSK

[16] = biological target: GRK4 (Homo sapiens (Human), UniProt P32298); experiment: Kinome-wide profiling; settings: read-out: % Residual Activity (mean)
[17] = biological target: ARAF (Homo sapiens (Human), UniProt P10398); experiment: Kinome-wide profiling; settings: read-out: % Residual Activity (mean)
[18] = biological target: CDK12/CyclinK (Homo sapiens (Human), UniProt Q9NYV4); experiment: CDK12/cyclinK enzyme activity; settings: in vitro
[19] = biological target: ARK5/NUAK1 (Homo sapiens (Human), UniProt O60285); experiment: Kinome-wide profiling; settings: read-out: % Residual Activity (mean)
Chain of ARK5/NUAK1 (O60285 whole entry): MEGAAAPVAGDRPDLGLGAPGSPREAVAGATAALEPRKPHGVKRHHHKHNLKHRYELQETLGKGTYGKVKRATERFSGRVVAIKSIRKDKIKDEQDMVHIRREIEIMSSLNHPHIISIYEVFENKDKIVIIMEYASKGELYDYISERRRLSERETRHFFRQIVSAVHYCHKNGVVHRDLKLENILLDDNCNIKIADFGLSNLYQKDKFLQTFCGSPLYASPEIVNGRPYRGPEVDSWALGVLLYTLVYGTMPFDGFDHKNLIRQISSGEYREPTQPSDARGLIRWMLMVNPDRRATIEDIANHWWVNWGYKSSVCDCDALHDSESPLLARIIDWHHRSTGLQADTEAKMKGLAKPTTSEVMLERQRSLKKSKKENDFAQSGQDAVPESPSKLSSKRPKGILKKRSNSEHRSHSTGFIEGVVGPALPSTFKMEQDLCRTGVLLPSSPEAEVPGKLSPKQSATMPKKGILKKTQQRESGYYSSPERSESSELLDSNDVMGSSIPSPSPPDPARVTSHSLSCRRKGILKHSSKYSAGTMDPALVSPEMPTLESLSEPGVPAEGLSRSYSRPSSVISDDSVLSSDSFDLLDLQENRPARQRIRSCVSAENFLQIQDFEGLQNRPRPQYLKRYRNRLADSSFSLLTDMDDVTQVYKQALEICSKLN

[20] = biological target: CDK18/cyclin Y (PCTK3) (Homo sapiens (Human), UniProt Q07002); experiment: Kinome-wide profiling; settings: read-out: % Residual Activity (mean)
[21] = biological target: ULK2 (Homo sapiens (Human), UniProt Q8IYT8); experiment: Kinome-wide profiling; settings: read-out: % Residual Activity (mean)
Chain of ULK2 (Q8IYT8 whole entry): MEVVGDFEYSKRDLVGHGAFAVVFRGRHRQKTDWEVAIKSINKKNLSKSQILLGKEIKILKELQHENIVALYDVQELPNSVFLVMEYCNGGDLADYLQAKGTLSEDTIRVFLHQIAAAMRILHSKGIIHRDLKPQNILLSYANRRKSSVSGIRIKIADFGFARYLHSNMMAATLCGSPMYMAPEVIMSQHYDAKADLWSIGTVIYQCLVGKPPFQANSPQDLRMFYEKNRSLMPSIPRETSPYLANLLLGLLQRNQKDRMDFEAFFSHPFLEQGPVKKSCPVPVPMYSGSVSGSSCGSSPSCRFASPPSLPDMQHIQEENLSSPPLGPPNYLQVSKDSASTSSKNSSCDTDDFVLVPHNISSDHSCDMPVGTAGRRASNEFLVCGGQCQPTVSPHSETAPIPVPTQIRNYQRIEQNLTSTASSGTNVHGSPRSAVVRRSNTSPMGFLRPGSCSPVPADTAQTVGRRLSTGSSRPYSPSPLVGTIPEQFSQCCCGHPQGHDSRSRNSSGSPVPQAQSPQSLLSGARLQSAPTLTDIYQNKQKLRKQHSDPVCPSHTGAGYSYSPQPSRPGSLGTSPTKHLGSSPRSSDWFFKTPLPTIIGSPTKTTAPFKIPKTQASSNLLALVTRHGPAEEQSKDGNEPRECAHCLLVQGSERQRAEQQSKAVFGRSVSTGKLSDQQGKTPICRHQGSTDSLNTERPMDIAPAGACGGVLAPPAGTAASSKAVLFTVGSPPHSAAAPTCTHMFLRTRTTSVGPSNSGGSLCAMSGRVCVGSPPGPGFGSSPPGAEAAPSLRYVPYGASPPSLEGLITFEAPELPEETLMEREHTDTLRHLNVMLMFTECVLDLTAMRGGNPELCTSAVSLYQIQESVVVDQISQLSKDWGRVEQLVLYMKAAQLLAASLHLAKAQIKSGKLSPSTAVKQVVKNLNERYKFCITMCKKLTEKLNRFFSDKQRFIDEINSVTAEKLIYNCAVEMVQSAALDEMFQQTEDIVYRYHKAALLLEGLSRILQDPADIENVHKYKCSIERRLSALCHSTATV

[22] = biological target: MARK2/PAR-1Ba (Homo sapiens, UniProt Q7KZI7); experiment: Kinome-wide profiling; settings: read-out: % Residual Activity (mean)
[23] = biological target: HCK (Homo sapiens (Human), UniProt P08631); experiment: Kinome-wide profiling; settings: read-out: % Residual Activity (mean)
[24] = biological target: PHKg1 (Homo sapiens (Human), UniProt Q16816); experiment: Kinome-wide profiling; settings: read-out: % Residual Activity (mean)
[25] = biological target: TXK (Homo sapiens (Human), UniProt P42681); experiment: Kinome-wide profiling; settings: read-out: % Residual Activity (mean)
[26] = biological target: CK1d (Homo sapiens (Human), UniProt P48730); experiment: Kinome-wide profiling; settings: read-out: % Residual Activity (mean)
[27] = biological target: PRKX (Homo sapiens (Human), UniProt P51817); experiment: Kinome-wide profiling; settings: read-out: % Residual Activity (mean)
[28] = biological target: PKCd (Homo sapiens (Human), UniProt Q05655); experiment: Kinome-wide profiling; settings: read-out: % Residual Activity (mean)
[29] = biological target: EPHA5 (Homo sapiens (Human), UniProt P54756); experiment: Kinome-wide profiling; settings: read-out: % Residual Activity (mean)
[30] = biological target: CDK1/cyclin B (Homo sapiens (Human), UniProt P06493); experiment: Kinome-wide profiling; settings: read-out: % Residual Activity (mean)
[31] = biological target: JAK3 (Homo sapiens (Human), UniProt P52333); experiment: Kinome-wide profiling; settings: read-out: % Residual Activity (mean)
[32] = biological target: CTK/MATK (Homo sapiens (Human), UniProt P42679); experiment: Kinome-wide profiling; settings: read-out: % Residual Activity (mean)
[33] = biological target: JNK1 (Homo sapiens (Human), UniProt P45983); experiment: Kinome-wide profiling; settings: read-out: % Residual Activity (mean)
[34] = biological target: CAMK1g (Homo sapiens (Human), UniProt Q96NX5); experiment: Kinome-wide profiling; settings: read-out: % Residual Activity (mean)
[35] = biological target: MKK7 (Homo sapiens (Human), UniProt O14733); experiment: Kinome-wide profiling; settings: read-out: % Residual Activity (mean)
[36] = biological target: CDK6/cyclin D1 (Homo sapiens (Human), UniProt Q00534); experiment: Kinome-wide profiling; settings: read-out: % Residual Activity (mean)
[37] = biological target: DCAMKL2 (Homo sapiens (Human), UniProt Q8N568); experiment: Kinome-wide profiling; settings: read-out: % Residual Activity (mean)
[38] = biological target: MKK6 (Homo sapiens (Human), UniProt P52564); experiment: Kinome-wide profiling; settings: read-out: % Residual Activity (mean)
[39] = biological target: STK32C/YANK3 (Homo sapiens (Human), UniProt Q86UX6); experiment: Kinome-wide profiling; settings: read-out: % Residual Activity (mean)

Chain of SNRK (Q9NRH2 whole entry): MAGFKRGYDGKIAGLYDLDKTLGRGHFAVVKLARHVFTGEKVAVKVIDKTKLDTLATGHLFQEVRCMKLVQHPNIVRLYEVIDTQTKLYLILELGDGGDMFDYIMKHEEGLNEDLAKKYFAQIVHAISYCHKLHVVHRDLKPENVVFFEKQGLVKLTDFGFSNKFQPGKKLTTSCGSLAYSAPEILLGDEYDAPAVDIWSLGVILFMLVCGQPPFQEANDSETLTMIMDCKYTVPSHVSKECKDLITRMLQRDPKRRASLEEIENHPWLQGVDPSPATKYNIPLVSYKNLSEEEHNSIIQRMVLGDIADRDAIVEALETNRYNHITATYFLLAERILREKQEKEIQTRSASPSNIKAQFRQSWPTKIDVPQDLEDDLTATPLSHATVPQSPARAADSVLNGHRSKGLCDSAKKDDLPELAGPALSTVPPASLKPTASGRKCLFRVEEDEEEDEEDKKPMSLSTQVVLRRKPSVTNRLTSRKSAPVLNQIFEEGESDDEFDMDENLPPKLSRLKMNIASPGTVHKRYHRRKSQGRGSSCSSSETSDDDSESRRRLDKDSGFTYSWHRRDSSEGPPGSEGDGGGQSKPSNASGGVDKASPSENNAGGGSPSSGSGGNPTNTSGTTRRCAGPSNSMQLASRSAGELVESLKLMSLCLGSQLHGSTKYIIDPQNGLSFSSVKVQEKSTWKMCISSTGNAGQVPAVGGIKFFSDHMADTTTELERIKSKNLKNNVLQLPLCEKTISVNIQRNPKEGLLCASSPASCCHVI

## CCn1cnc2c(NCc3ccc(-c4ccccn4)nc3)nc(-c3ccc(N)nc3)nc21 [Example 53, N-([2,2′-bipyridin]-5-ylmethyl)-2-(6-aminopyridin-3-yl)-9-ethyl-9H-purin-6-amine]
[1]
  remaining activity at 10 µM: 1.6%
[2]
  remaining activity at 10 µM: 93%
[3]
  remaining activity at 10 µM: 3.19%
[4]
  remaining activity at 10 µM: 43.9%
[5]
  remaining activity at 10 µM: 28.3%
[6]
  remaining activity at 10 µM: 79.4%
[7]
  remaining activity at 10 µM: 93.1%
[8]
  remaining activity at 10 µM: 86.6%
[9]
  remaining activity at 10 µM: 97.6%
[10]
  remaining activity at 10 µM: 41.4%
[11]
  remaining activity at 10 µM: 84.1%
[12]
  remaining activity at 10 µM: 59.7%
[13]
  remaining activity at 10 µM: 3.85%
[14]
  remaining activity at 10 µM: 65.7%
[15]
  remaining activity at 10 µM: 58%
[16]
  remaining activity at 10 µM: 88.3%
[17]
  remaining activity at 10 µM: 79.5%
[18]
  IC50: 0.03 µM
[19]
  remaining activity at 10 µM: 20.8%
[20]
  remaining activity at 10 µM: 2.46%
[21]
  remaining activity at 10 µM: 87.3%
[22]
  remaining activity at 10 µM: 74.3%
[23]
  remaining activity at 10 µM: 46.5%
[24]
  remaining activity at 10 µM: 16.5%
[25]
  remaining activity at 10 µM: 34.9%
[26]
  remaining activity at 10 µM: 10.2%
[27]
  remaining activity at 10 µM: 79.2%
[28]
  remaining activity at 10 µM: 95.2%
[29]
  remaining activity at 10 µM: 5.86%
[30]
  remaining activity at 10 µM: 2.06%
[31]
  remaining activity at 10 µM: 99.7%
[32]
  remaining activity at 10 µM: 87.6%
[33]
  remaining activity at 10 µM: 41.6%
[34]
  remaining activity at 10 µM: 54.3%
[35]
  remaining activity at 10 µM: 96.3%
[36]
  remaining activity at 10 µM: 24.2%
[37]
  remaining activity at 10 µM: 55%
[38]
  remaining activity at 10 µM: 95.4%
[39]
  remaining activity at 10 µM: 86.7%
